Key:
[1] = target: T1, Neuropeptide Y receptor type 1 (Homo sapiens, UniProt P25929); assay: Tested for radioligand binding affinity against membranes from COS-7 cells transiently transfected with Neuropeptide Y receptor type 1; format: cell membranes
T1 sequence (P25929 whole entry): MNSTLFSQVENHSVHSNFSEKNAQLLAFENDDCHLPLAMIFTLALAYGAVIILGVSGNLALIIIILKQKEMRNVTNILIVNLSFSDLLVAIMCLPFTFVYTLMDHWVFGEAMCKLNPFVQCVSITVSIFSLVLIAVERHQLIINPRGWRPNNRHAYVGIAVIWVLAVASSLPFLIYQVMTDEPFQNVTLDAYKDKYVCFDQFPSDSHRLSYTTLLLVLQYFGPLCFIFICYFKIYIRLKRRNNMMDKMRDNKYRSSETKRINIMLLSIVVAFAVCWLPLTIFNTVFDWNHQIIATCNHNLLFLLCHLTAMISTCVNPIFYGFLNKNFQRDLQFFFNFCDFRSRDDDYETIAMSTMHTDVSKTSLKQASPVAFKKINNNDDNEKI

[2] = target: T2, Neuropeptide Y receptor type 5 (Homo sapiens, UniProt Q15761); assay: Tested for radioligand binding affinity against membranes from COS-7 cells transiently transfected with Neuropeptide Y receptor type 5; format: cell membranes
T2 sequence (Q15761 whole entry): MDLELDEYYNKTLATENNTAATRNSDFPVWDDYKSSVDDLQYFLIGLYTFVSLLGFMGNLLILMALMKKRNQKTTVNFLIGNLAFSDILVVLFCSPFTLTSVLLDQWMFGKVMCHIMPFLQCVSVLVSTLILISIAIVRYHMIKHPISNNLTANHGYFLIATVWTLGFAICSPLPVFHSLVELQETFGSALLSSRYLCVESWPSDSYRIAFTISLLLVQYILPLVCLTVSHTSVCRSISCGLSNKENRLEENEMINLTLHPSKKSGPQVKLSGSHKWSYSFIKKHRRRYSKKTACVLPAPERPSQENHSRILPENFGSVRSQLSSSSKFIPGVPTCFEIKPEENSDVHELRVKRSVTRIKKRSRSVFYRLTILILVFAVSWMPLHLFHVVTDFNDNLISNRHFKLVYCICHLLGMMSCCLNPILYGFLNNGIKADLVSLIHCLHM

[3] = target: T3, Alpha-2C adrenergic receptor (Homo sapiens, UniProt P18825); assay: Bnding affinity against cloned human Alpha-2C adrenergic receptor was evaluated
T3 sequence (P18825 whole entry): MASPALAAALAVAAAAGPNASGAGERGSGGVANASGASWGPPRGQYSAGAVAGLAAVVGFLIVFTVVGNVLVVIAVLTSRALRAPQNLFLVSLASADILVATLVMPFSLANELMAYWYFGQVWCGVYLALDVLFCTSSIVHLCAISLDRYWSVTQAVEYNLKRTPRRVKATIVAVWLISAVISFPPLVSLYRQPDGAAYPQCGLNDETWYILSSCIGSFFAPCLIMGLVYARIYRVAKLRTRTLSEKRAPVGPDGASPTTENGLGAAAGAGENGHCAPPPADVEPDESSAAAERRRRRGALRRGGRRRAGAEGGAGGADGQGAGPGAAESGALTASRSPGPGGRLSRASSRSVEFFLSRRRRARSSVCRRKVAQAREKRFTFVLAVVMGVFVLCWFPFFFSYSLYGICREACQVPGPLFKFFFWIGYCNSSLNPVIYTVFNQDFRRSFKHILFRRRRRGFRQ

[4] = target: D(2) dopamine receptor (Homo sapiens, UniProt P14416); assay: Binding affinity against cloned human Dopamine receptor D2 was evaluated
D(2) dopamine receptor, sequence (P14416 whole entry): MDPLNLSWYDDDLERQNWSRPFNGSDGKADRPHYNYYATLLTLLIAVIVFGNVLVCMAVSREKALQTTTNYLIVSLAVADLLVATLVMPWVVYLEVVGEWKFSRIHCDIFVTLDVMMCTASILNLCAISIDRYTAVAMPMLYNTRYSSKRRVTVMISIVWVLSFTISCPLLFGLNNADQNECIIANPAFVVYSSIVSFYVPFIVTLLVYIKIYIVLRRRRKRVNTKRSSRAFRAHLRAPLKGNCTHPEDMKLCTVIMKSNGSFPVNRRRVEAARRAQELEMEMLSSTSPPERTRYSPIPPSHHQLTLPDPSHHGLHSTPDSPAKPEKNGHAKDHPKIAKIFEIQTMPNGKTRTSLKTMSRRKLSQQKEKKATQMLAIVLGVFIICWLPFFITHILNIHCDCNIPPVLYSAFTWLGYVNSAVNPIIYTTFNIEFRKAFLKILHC

[5] = target: T4, Neuropeptide Y receptor type 1 (Rattus norvegicus, UniProt P21555); assay: Functional response of NPY to inhibit forskolin-stimulated cAMP in cells stably transfected with Neuropeptide Y receptor type 1
T4 sequence (P21555 whole entry): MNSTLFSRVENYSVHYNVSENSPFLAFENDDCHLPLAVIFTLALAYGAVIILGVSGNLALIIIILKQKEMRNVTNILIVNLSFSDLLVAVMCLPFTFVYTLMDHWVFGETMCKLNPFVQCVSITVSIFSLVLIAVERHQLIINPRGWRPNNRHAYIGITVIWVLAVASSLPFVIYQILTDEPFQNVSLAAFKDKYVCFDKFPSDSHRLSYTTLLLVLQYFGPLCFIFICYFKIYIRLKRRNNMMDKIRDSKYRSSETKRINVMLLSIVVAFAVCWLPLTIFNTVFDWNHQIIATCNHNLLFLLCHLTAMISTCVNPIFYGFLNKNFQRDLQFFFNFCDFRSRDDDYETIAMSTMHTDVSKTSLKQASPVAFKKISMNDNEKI

[6] = target: T5, Neuropeptide Y receptor type 5 (Rattus norvegicus, UniProt Q63634); assay: Functional response of NPY to inhibit forskolin-stimulated cAMP in cells stably transfected with rat Neuropeptide Y receptor type 5
T5 sequence (Q63634 whole entry): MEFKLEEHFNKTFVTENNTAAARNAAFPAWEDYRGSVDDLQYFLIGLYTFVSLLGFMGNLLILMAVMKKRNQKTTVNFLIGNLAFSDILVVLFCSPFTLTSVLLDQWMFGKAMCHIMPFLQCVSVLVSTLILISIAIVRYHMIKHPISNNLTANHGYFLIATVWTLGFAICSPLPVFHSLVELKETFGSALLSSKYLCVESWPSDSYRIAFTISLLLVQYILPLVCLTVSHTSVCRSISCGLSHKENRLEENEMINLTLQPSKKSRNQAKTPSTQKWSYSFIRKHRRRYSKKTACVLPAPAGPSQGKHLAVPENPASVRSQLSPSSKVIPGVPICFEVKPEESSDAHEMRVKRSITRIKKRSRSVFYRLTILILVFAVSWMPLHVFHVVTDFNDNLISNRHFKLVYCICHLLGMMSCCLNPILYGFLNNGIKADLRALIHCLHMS

| SMILES | Ki [1] [nM] | Ki [2] [nM] | Ki [3] [nM] | Ki [4] [nM] | Ki [5] [nM] | Ki [6] [nM] |
| --- | --- | --- | --- | --- | --- | --- |
| O=[N+]([O-])c1ccccc1S(=O)(=O)NC[C@H]1CC[C@H](CNCc2ccnc3ccccc23)CC1 | 48700 | 28 | – | – | – | – |
| O=S(=O)(NCCCCCCNCc1ccc2ccccc2c1)c1ccc2ccccc2c1 | 7300 | 123 | – | – | – | – |
| O=S(=O)(NC[C@H]1CC[C@H](CNCc2ccc3ccccc3c2)CC1)c1ccccc1C(F)(F)F | 13000 | 10 | – | – | – | – |
| O=S(=O)(NC[C@H]1CC[C@H](CNCc2cccc3ccccc23)CC1)c1ccccc1C(F)(F)F | 14500 | 26 | – | – | – | – |

The remaining lines, values ahead:

| Ki [1] [nM] | Ki [2] [nM] | Ki [3] [nM] | Ki [4] [nM] | Ki [5] [nM] | Ki [6] [nM] | SMILES |
| --- | --- | --- | --- | --- | --- | --- |
| 17200 | 10 | – | – | – | – | Nc1ccccc1S(=O)(=O)NC[C@H]1CC[C@H](CNCC2CCc3ccccc3C2)CC1 (some centres undefined) |
| 16000 | 8 | 100 | 63 | 22000 | 18 | O=[N+]([O-])c1ccccc1S(=O)(=O)NC[C@H]1CC[C@H](CNCC2CCc3ccccc3C2)CC1 (some centres undefined) |
| 23700 | – | – | – | – | – | O=[N+]([O-])c1ccccc1S(=O)(=O)NC[C@H]1CC[C@H](CNCc2ccc3ccccc3n2)CC1 |
| 3550 | 11 | – | – | – | – | O=S(=O)(NC[C@H]1CC[C@H](CNCC2CCc3ccccc3C2)CC1)c1cccc2ccccc12 (some centres undefined) |

Source: ChEMBL document CHEMBL1135171, “Discovery of potent and selective small molecule NPY Y5 receptor antagonists” (Bioorg Med Chem Lett, 2002)
